{"source": "patent US20260375146A1", "about": "“COMBINATION OF COMPOUNDS FOR DEVELOPING IN VITRO MODELS OF THE BLOOD-BRAIN BARRIER” (HUN-REN SZEGEDI BIOLÓGIAI KUTATÓKÖZPONT, priority 2023, published 2026)", "molecules": {"B1": {"name": "Wnt-3a: recombinant human Wnt-3a protein (protein, UniProt P56704 19-352, looked up)", "Protein Wnt-3a": "SYPIWWSLAVGPQYSSLGSQPILCASIPGLVPKQLRFCRNYVEIMPSVAEGIKIGIQECQHQFRGRRWNCTTVHDSLAIFGPVLDKATRESAFVHAIASAGVAFAVTRSCAEGTAAICGCSSRHQGSPGKGWKWGGCSEDIEFGGMVSREFADARENRPDARSAMNRHNNEAGRQAIASHMHLKCKCHGLSGSCEVKTCWWSQPDFRAIGDFLKDKYDSASEMVVEKHRESRGWVETLRPRYTYFKVPTERDLVYYEASPNFCEPNPETGSFGTRDRTCNVSSHGIDGCDLLCCGRGHNARAERRREKCRCVFHWCCYVSCQECTRVYDVHTCK"}}, "key": {"[1]": {"test_system": "EC monolayers", "conditions": "alone, especially with astrocyte-conditioned medium; cited from earlier work"}, "[2]": {"test_system": "stem cell-derived ECs", "conditions": "cited from earlier work"}, "[3]": {"test_system": "central nervous system", "conditions": "route of penetration across the BBB; cited from earlier work"}, "[4]": {"test_system": "EC-PC co-culture BBB model", "experiment": "Penetration of small molecule drugs across the BBB co-culture model", "conditions": "1 μM drug; cAMP+Ro+LiCl+A83-01 vs control", "description": "Assembly, maintenance and treatment of co-cultures were performed as described above. […] In B-A direction, samples from both compartments were collected at 60 min. In A-B direction, inserts were transferred to a new well with fresh buffer at 30 min, then at the end of the assay samples were collected from the donor (0-60 min) and acceptor compartments (0-30 min, 30-60 min). […] Drug concentrations were determined by standard calibration curves.\nwhere CA is the concentration measured in the acceptor compartment, VA is the volume of the acceptor compartment (1.5 mL) and CD is the treatment concentration in the donor compartment at a given timepoint. […] Papp was then calculated as: […]\nwhere A is the surface area of the insert available for permeability (1.12 cm^2). Efflux ratio was calculated by dividing Papp values in B-A direction by Papp values in A-B direction.\nwhere nA.30, nA.60 and nD.60 are the amounts of substance (pmol) in the accentor compartment at 30 and 60 min as well as the donor compartment at 60 min, respectively, and nT is the amount of substance (pmol) present at the treatment solution at 0 min. In vitro Kp,uu,brain was then calculated as: […]\nwhere CT is the concentration of a drug in the treatment solution at 0 min, CD is the concentration in the donor compartment at 60 min and R is recovery. Calculation of Pearson r^2 and Spearman r coefficients using data referenced in the legend FIG. 5d was performed in GraphPad Prism software (version 5.0)."}, "[5]": {"test_system": "Wnt/β-catenin signaling", "conditions": "in vitro; cited from earlier work"}, "[6]": {"test_system": "human stem cell-derived ECs", "experiment": "Impedance-based measurement of barrier integrity, human ECs", "type": "cell-based", "description": "(§1) Real-time, label-free measurement of barrier integrity was performed in 96-well plates with integrated gold electrodes (E-plate 96: Agilent, cat #300600910) using an xCELLigence RTCA SP device (Agilent). Plates were coated with 0.2% gelatin (Sigma-Aldrich, cat #G2500) and the cell-free background was measured in culture medium for each well. Then, ECs were seeded in the plates at a density of 6×10^3 cells/well and grown until fully confluent, while receiving 50% PC-conditioned medium to acquire brain-like properties. […] For combinatorial treatments, the following concentrations were used: cAMP 250 µM, Ro […], Wnt-3a 300 ng/mL, Wnt-7a 300 ng/mL, LiCl 3 mM, RepSox 10 μM and A83-01 3 μM. For all further experiments on human ECs, combination of cAMP+Ro+LiCl+A83-01 treatment consisted of 250 μM cAMP+17.5 μM Ro+3 mM LiCl+3 μM A83-01. The readout of impedance measurements is cell index, a dimensionless parameter which correlates with the strength of cell-cell contacts and cell adhesion. Cell index was defined as Zn-Z0, where Zn is the impedance at time point n and Zo is the impedance of the cell-free background in each well. Cell index values were normalized to the last time point before treatment."}, "[7]": {"test_system": "human stem cell-derived brain-like ECs", "experiment": "Albumin internalization in ECs", "type": "cell-based", "conditions": "MβCD 1 mM, 1 h", "description": "ECs were cultured in 50% PC-conditioned medium on 35 mm glass bottom Petri dishes (Greiner Bio-One, cat #627860) coated with collagen IV (Sigma-Aldrich, cat #C5533, 100 ng/mL) and fibronectin (Sigma-Aldrich, cat #F1141, 25 μg/mL) at a seeding density of 5×10^4 cells/cm^2. […] After that, culture medium was removed and cells were incubated with Texas Red-conjugated BSA (TR-albumin; Invitrogen, cat #A23017, 5 μg/mL) dissolved in control medium for 2 h at 37 °C. For the final 20 minutes of incubation, Hoechst 33342 (Thermo Fisher, cat #H1399,2 μg/mL) was added to cells to counterstain nuclei. Cultures were washed twice in Ringer-HEPES supplemented with 1% FBS and live-cell imaging was performed immediately in the same buffer using a Leica TCS SP5 AOBS confocal laser scanning microscope equipped with a HCX PL APO 63× oil (NA=1.4) objective with the same parameters as described above. After live-cell imaging, cells were fixed with 3% paraformaldehyde for 15 min at room temperature and immunostained for caveolin-1 exactly as described above. […] Finally, ECs were lysed with 1% Triton X 100 in Milli-Q water and the fluorescent signal of internalized TR-albumin was quantified with a Fluorolog 3 spectrofluorometer (Horiba Jobin Yvon) at 592 nm excitation and 612 nm emission wavelengths. Concentrations of internalized TR-albumin were calculated using a standard calibration curve. […]"}, "[8]": {"test_system": "human endothelial cell and brain pericyte co-culture BBB model", "experiment": "Early experiment: cAMP alone or with PDE4 inhibitor, normalized cell index", "type": "cell-based", "conditions": "PDE4 inhibitor together with cAMP; in particular within first 24 hours; data not shown"}, "[9]": {"test_system": "Wnt/β-catenin signaling", "conditions": "role: inhibitor; cited from earlier work"}, "[10]": {"test_system": "Wnt/β-catenin signaling", "experiment": "Pharmacological inhibition of Wnt/β-catenin signaling, barrier integrity by impedance", "type": "cell-based, human", "conditions": "for interference with basal barrier integrity: no combination treatment, titrated inhibitor; for reduction of the effect of cAMP+Ro+LiCl+A83-01 on barrier integrity (impedance): role: inhibitor, ICG-001 5 μM or XAV 939 1 μM, co-treatment 48 h", "description": "as §1\nWnt/β-catenin signaling was blocked at two different points using inhibitors ICG-001 (MedChemExpress, cat #HY-14428) and XAV 939 (MedChemExpress, cat #HY-15147). For the measurement of barrier integrity by impedance. ECs were cultured as described above. Confluent monolayers were treated with ICG-001 […] for 48 h at 37 °C, and impedance was measured at 10 kHz every 5 min using the xCELLigence RTCA SP device (Agilent) as described above. […] For the measurement of TEER and tracer permeability, EC-PC co-cultures were assembled and maintained as described above. On day 4, the luminal (blood) side of the model was incubated with the combination of cAMP+Ro+LiC+A83-01 or control medium supplemented with either 5 μM ICG-001 or 1 μM XAV 939 for 48 h at 37 °C. TEER and tracer permeability were then measured and calculated as described above."}}, "note": "Like-named read-outs stand apart in the source and are kept apart here.", "data": [{"molecule": "C=C[C@@]1(C)CC(=O)[C@]2(O)[C@@]3(C)[C@@H](O)CCC(C)(C)[C@@H]3[C@H](O)[C@H](OC(C)=O)[C@@]2(C)O1", "note": "[forskolin]", "values": [{"measurement": "resistance across EC monolayers", "setting": "[1]", "result": "increase resistance across EC monolayers"}]}, {"molecule": "Cc1cccc(-c2[nH]ncc2-c2ccc3ncccc3n2)n1", "note": "[RepSox]", "values": [{"measurement": "junctional tightness", "setting": "[2]; stem cell-derived ECs, via claudin-5", "result": "elevate junctional tightness"}]}, {"molecule": "CN(C)C(=O)C(CCN1CCC(O)(c2ccc(Cl)cc2)CC1)(c1ccccc1)c1ccccc1", "note": "[Loperamide]", "values": [{"measurement": "BBB transport", "setting": "[3]", "result": "Passive hydrophilic, efflux"}, {"measurement": "efflux ratio, change on combination treatment", "setting": "[4]", "result": "elevated"}, {"measurement": "permeability (Papp), blood-to-brain (A-B), change on combination treatment", "setting": "[4]", "result": "lower permeability"}]}, {"molecule": "CC[C@]1(O)C[C@@H]2CN(CCc3c([nH]c4ccccc34)[C@@](C(=O)OC)(c3cc4c(cc3OC)N(C)[C@H]3[C@@](O)(C(=O)OC)[C@H](OC(C)=O)[C@]5(CC)C=CCN6CC[C@]43[C@@H]65)C2)C1", "note": "[Vinblastine]", "values": [{"measurement": "BBB transport", "setting": "[3]", "result": "Efflux"}, {"measurement": "efflux ratio, change on combination treatment", "setting": "[4]", "result": "trend"}, {"measurement": "permeability (Papp), blood-to-brain (A-B), change on combination treatment", "setting": "[4]", "result": "lower permeability"}]}, {"molecule": "O=C(O)c1ccccc1O", "note": "[Salicylic acid]", "values": [{"measurement": "BBB transport", "setting": "[3]", "result": "Efflux, influx"}, {"measurement": "permeability (Papp), blood-to-brain (A-B), change on combination treatment", "setting": "[4]", "result": "lower permeability"}]}, {"molecule": "[Cl-].[Li+]", "note": "[LiCl, lithium chloride]", "values": [{"measurement": "induction of barrier properties", "setting": "[5]", "result": "induce a subset of barrier properties"}, {"measurement": "enhancement of the effect of cAMP+Ro on barrier integrity (impedance)", "setting": "[6]; added to cAMP+Ro", "result": "did not enhance"}]}, {"molecule": "Cc1cccc(-c2nn(C(=S)Nc3ccccc3)cc2-c2ccnc3ccccc23)n1", "note": "[A83-01, 3-(6-Methyl-2-pyridinyl)-N-phenyl-4-(4-quinolinyl)-1H-pyrazole-1-carbothioamide]", "values": [{"measurement": "junctional tightness", "setting": "[2]", "result": "elevate junctional tightness"}, {"measurement": "enhancement of the effect of cAMP+Ro on barrier integrity (impedance)", "setting": "[6]", "result": "did not enhance"}]}, {"molecule": "Nc1c2c(nc3ccccc13)CCCC2", "note": "[Tacrine]", "values": [{"measurement": "BBB transport", "setting": "[3]", "result": "Influx"}, {"measurement": "permeability (Papp), blood-to-brain (A-B), change on combination treatment", "setting": "[4]", "result": "increased the permeability"}]}, {"molecule": "methyl-β-cyclodextrin [methyl-p-cyclodextrin]", "values": [{"measurement": "inhibition of albumin internalization (lipid raft/caveolin-mediated endocytosis)", "setting": "[7]", "result": "sensitive"}]}, {"molecule": "CCCCOc1cc(CC2CNC(=O)N2)ccc1OC", "note": "(stereo not shown) [Ro 20-1724, 4-(3-Butoxy-4-methoxybenzyl)imidazolidin-2-one]", "values": [{"measurement": "barrier integrity as normalized cell index, further increase over cAMP alone", "setting": "[8]", "result": "further increases barrier integrity"}, {"measurement": "resistance across EC monolayers", "setting": "[1]", "result": "increase resistance across EC monolayers"}]}, {"molecule": "O=C1Nc2cc(Br)ccc2C1=C1Nc2ccccc2C1=NO", "note": "[6-BIO, 6-bromoindirubin-3-oxim]", "values": [{"measurement": "induction of barrier properties", "setting": "[5]", "result": "induce a subset of barrier properties"}]}, {"molecule": "Oc1nc(-c2ccc(C(F)(F)F)cc2)nc2c1CSCC2", "note": "[XAV 939]", "values": [{"measurement": "point of inhibition of Wnt signaling", "setting": "[9]", "result": "blocks the pathway upstream of nuclear translocation"}, {"measurement": "interference with basal barrier integrity", "setting": "[10]", "result": "do not interfere with basal barrier integrity"}, {"measurement": "reduction of the effect of cAMP+Ro+LiCl+A83-01 on barrier integrity (impedance)", "setting": "[10]", "result": "more potently reduced the effect of the combination of cAMP+Ro+LiCl+A83-01, almost to the level of cAMP+Ro treatment"}]}, {"molecule": "Methotrexate", "values": [{"measurement": "BBB transport", "setting": "[3]", "result": "Efflux"}, {"measurement": "efflux ratio, change on combination treatment", "setting": "[4]", "result": "elevated"}]}, {"molecule": "CC(C)NCC(O)COc1cccc2ccccc12", "note": "(stereo not shown) [Propranolol]", "values": [{"measurement": "BBB transport", "setting": "[3]", "result": "Passive lipophilic"}, {"measurement": "permeability (Papp), blood-to-brain (A-B), change on combination treatment", "setting": "[4]", "result": "increased the permeability"}]}, {"molecule": "O=C1[C@H](Cc2ccc(O)cc2)N2C(=O)CCN(C(=O)NCc3ccccc3)[C@H]2CN1Cc1cccc2ccccc12", "note": "[ICG-001]", "values": [{"measurement": "point of inhibition of Wnt signaling", "setting": "[9]", "result": "specifically inhibits the β-catenin-CREB-binding protein (CBP) interaction in the nucleus"}, {"measurement": "interference with basal barrier integrity", "setting": "[10]", "result": "do not interfere with basal barrier integrity"}, {"measurement": "reduction of the effect of cAMP+Ro+LiCl+A83-01 on barrier integrity (impedance)", "setting": "[10]", "result": "moderately"}]}, {"molecule": "COc1ccc2c(c1)c(CC(=O)O)c(C)n2C(=O)c1ccc(Cl)cc1", "note": "[Indomethacin]", "values": [{"measurement": "BBB transport", "setting": "[3]", "result": "Passive lipophilic"}]}, {"molecule": "Cc1c[nH]c(-c2cnc(NCCNc3ccc(C#N)cn3)nc2-c2ccc(Cl)cc2Cl)n1", "note": "[CHIR99021]", "values": [{"measurement": "induction of barrier properties", "setting": "[5]", "result": "induce a subset of barrier properties"}]}, {"molecule": "Nc1nnc(-c2cccc(Cl)c2Cl)c(N)n1", "note": "[Lamotrigine]", "values": [{"measurement": "BBB transport", "setting": "[3]", "result": "Passive lipophilic"}]}, {"molecule": "B1", "values": [{"measurement": "induction of barrier properties", "setting": "[5]", "result": "induce a subset of barrier properties"}]}]}
